Results taken from patent US20050044581A1, “Animals and cells containing a mutated alpha2/omega1 gene” (priority 2003, published 2005).

Experiments:
[1] = tested on: R217A mutant lines and background strain mice; experiment: Maximal electroshock procedure (MES); assay type: in vivo, mouse; conditions: for responsiveness to anticonvulsant effects: all background strains, mutant, heterozygous mutant and wildtype (all lines)
Procedure: WT mice were tested at 0.1 mA, HET mice were tested at 0.4 mA and KI mice were tested at 0.7 InA. Each experiment included a no-shock vehicle control group for direct comparison to the concurrent vehicle punished-responding group to determine percent suppression of drinking. […] Sedation was noted by the observer as previously described. […] Electroshock in mice was delivered using corneal electrodes with varied electroshock intensity. Current was delivered (60 Hz sinusoidal current, 11 to 17 mA baseline to peak vs. 50 mA for 0.2 s) using a constant-current stimulator (Wahlquist Instruments, Salt Lake City, Utah). The intensities of current necessary to produce tonic extensor seizures for each mouse strain and mutant lines in all of the mice were determined. These currents were then used for further testing of mice with pregabalin. All dose-response testing was conducted at the previously determined time of peak drug effect. Groups of 10 mice each were give various intraperitoneal doses of pregabalin dissolved in 0.9% saline, diazepam (veh) or phenytoin and given in a volume of 10 ml/kg of body weight. […] At least four groups of mice and each animal was employed once. The animals, pretreated with different doses of the tested drugs, were challenged with one electroshock at previously determined times of peak drug effect (pregabalin: 120 min; diazepam: 60 min; phenytoin; 60 min)

[2] = tested on: WT, HET and KI R217A mice and parent strains; experiment: Vogel water-lick conflict; assay type: in vivo, mouse; conditions: for minimally effective dose (MED), Vogel: IP (doses tested in mg/kg); for anxiolytic-like effect / punished licking, Vogel: R217A knockins (homozygous)
Procedure: Two strains used to generate the mutant mice, C57BU6J (Jackson Laboratories), and 129S6/SvEV (Taconic Farms), were also evaluated. Albino or C57BL/6J-Tyr were also included in the experiments for comparison purposes. Male C57BL/6J (Jackson Laboratories), and 129S6/SvEV (Taconic Farms) mice were received at 8 weeks old in quantities sufficient for each study to be completed in one experiment. Parent strains were housed one week prior to testing. All animals were housed in a temperature and humidity controlled room under a 12L: 12D schedule (lights on @06:00 h). All mice were housed in isolators (3-5/cage) with the exception of C57BU6J mice that were housed on wire racks (12/cage).
On the side of each chamber (1.5 in. above the floor) a module optical lickometer was mounted. The lickometer was used to measure licking from a drink tube attached to a water bottle mounted on the exterior of the chamber. A photo beam was piped via glass rods across a gap at the end of the drink tube. The subject's tongue breaks the beam when it drinks from the tube and each lick was automatically recorded. […] The reduced chamber space limited the animal's activity and directed behavior towards the drink tube during a 10-minute session. The front and back of the test chamber was made of clear Plexiglas. The front door was covered to reduce distractions from inside the test room. The back of the test chamber faced a wall, away from the flow of traffic in the testing room, and remained uncovered to provide the opportunity for observations. Shock was delivered between the grid floor and the drink tube using a (Coulbourn) programmable universal shocker for a duration of one second, but terminated immediately when contact between the animal and drink tube was broken.
PROCEDURE: On day one, after 24 hours of water deprivation, experimental subjects were placed in the test chambers and allowed to drink unpunished for a 10-minute training session. Mice were required to complete a 100-150 lick criteria during the training session. Subjects that completed the training criteria prior to the end of the 10-minute session were removed so that drinking was restricted in all subjects to 25% of their total daily intake. […] Immediately after the day one session mice were returned to their home cages and deprived of water and food for an additional 24 hours. On test day two, mice were dosed by intraperitoneal (IP) injection with vehicle or test compound. After a 60 or 120-minute absorption period mice were placed into the test chambers for a 10-minute test session. During the test, shock was delivered on a fixed ratio (FR) 10 schedule. Therefore, after every 10th lick the subject received a mild shock. […] A low number of shock episodes accepted reflects anxiety-related behavior. Standard anxiolytic drugs produce effects that allow mice to overcome the behavioral inhibition and drink despite the shock. […] All data were analyzed using a one-way ANOVA/Dunn's Method.
DRUGS: Pregabalin was dissolved in physiological saline for all experiments. The positive control diazepam was suspended in 2% cremophor in physiological saline. All drugs were dosed in a volume of 10 mL/kg.
C57BL/6J mice were tested at 0.4 mA, C57BL/6J-Tyr mice were tested at 0.1 mA and 129S6/SvEV mice were tested at 0.6 mA. Each dose-response study included a no-shock vehicle control group directly compared to the concurrent vehicle punished-responding group to evaluate the suppression of drinking. […] For all experiments, sedation was noted when both symptoms of ataxia (unsteady gait) and a reduced response to handling were observed after dosing and described as mild, moderate or severe.
WT mice were tested at 0.1 mA, HET mice were tested at 0.4 mA and KI mice were tested at 0.7 InA. Each experiment included a no-shock vehicle control group for direct comparison to the concurrent vehicle punished-responding group to determine percent suppression of drinking.

[3] = tested on: α2/δ1 in mouse brain membranes; experiment: 3H gabapentin binding to whole mouse brain membranes, R217A mutant vs wildtype; conditions: R217A mutant mouse in comparison to wildtype mice; tracer 3H gabapentin; FIG. 3
Procedure: Membranes were prepared from whole mouse brains. […] Total binding was determined in the absence of competitor. Non-specific binding was determined in the presence of 10 μM unlabeled pregabalin.

[4] = tested on: α2/δ1 R217A wild type and homozygous mice; experiment: Tail Suspension Test (TST); assay type: in vivo, mouse; conditions: R217A mutant vs wildtype mice; dosed 120 minutes prior; FIG. 5
Procedure: Male α2/δ1 R217A wild type and homozygous mice, weighing 22-35 grams, were used for testing. Animals were maintained on a 12 hour light/dark cycle with food and water available ad libitum. Animals were food deprived overnight the day before testing. On test day, animals were placed by groups of 8 into holding cages to acclimate for sixty minutes prior to dosing. Vehicle or pregabalin was administered 120 minutes prior to testing at a dose volume of 10 mL/kg. At test time, a piece of transparent tape was placed around the distal portion of the tail. The tape was then attached to a hook connected to an electro-mechanical apparatus that recorded the amount of time a mouse moved and the force used during movement. The hook was located at the top of a 24×18 cm testing chamber. Animals were completely suspended in air approximately 5 cm off the floor of the chamber for six minutes. Mean time of struggling and force of movement were then calculated for each group of eight.
Animals are placed by groups of eight into holding cages to acclimate for thirty to sixty minutes prior to dosing. Treatments are generally administered 60 to 120 minutes prior to testing, although this also varies with specific compounds. At test time, a piece of scotch tape is placed around the distal portion of the tail. […]

[5] = tested on: R217A knock-in and wild-type mice; experiment: Chronic constriction injury (CCI)-induced static allodynia, von Frey hairs; assay type: in vivo, mouse; conditions: for efficacy in CCI-induced allodynia: 30-100mg/kg, p.o.; for effect on CCI-induced punctate allodynia: sub cutaneous 30-100mg/kg, FIG. 8
Description: Animals were placed in an anaesthetic chamber and anaesthetised with a 2% isofluorane O2 mixture. The right hind thigh is shaved and swabbed with 1% iodine. Animals were then transferred to a homeothermic blanket for the duration of the procedure and anaesthesia maintained during surgery via a nose cone. The skin was cut along the line of the thigh bone. The common sciatic nerve was exposed at the middle of the thigh by blunt dissection through biceps femoris. Proximal to the sciatic trifurcation, about 5mm of nerve was freed by inserting forceps under the nerve and the nerve gently lifted out of the thigh. The forceps were gently opened and closed several times to aid clearance of the fascia from the nerve. Suture was pulled under the nerve using forceps and tied in a simple knot until slight resistance was felt and then double knotted. The procedure was repeated until 3 ligatures (4-0 silk) were tied loosely around the nerve with approx 1 mm spacing. The incision was closed in layers and the wound treated with topical antibiotics.
Animals were habituated to wire test cages prior to the assessment of allodynia. Static allodynia was evaluated by application of von Frey hairs (Stoelting, Wood Dale, Ill., U.S.A.) in ascending order of force ([…], 0.4, 0.6, 1.0, 1.5 and 2.0 g) to the plantar surface of hind paws. Each von Frey hair was applied to the paw for a maximum of 6 seconds, or until a withdrawal response occurred. Once a withdrawal response to a von Frey hair was established, the paw was re-tested, starting with the filament below the one that produced a withdrawal, and subsequently with the remaining filaments in descending force sequence until no withdrawal occurred. Each animal had both hind paws tested in this manner. The lowest amount of force required to elicit a response was recorded as paw withdrawal threshold (PWT) in grams. […]
(§1) Following drug administration PWT were re-assessed for up to 4 h. The static allodynia data is expressed as median force (g) required to induce a paw withdrawal in 6-7 animals per group (vertical bars represent 1st and 3rd quartiles) *P<0.05, **P<0.01***P<0.005 (Mann Whitney U test) from vehicle treated group at each time point.
as §1, with “It was examined whether pregabalin produced an anti-allodynic action in both the knock-in and wild-type mice. […] Baseline (BL) paw withdrawal thresholds (PWT) to von Frey hairs were assessed. Following” for “Following”

[6] = tested on: α2/δ1 R217A wild type, heterozygous and homozygous mice; experiment: Formalin foot-pad procedure (formalin-induced hyperalgesia); assay type: in vivo, mouse; conditions: PO 120 minutes prior to testing, FIG. 4
Procedure: Male α2/δ1 R217A wild type, heterozygous, and homozygous mice, weighing 19-40 grams, were used for testing. Animals were maintained on a 12 hour light/dark cycle with food and water available ad libitum. Animals were food deprived overnight the day before testing. On test day, animals were acclimated to the observation chambers for approximately 60 min. The observation chambers were eight inch square boxes consisting of solid, acrylic plastic mirrors for the floor and 3 walls. The fourth wall was clear acrylic that allowed for observation. Animals were dosed PO with either vehicle or pregabalin, 120 minutes prior to testing at a dose volume 10 ml/kg. At test time, animals received a 25 μL injection of a 5% formalin solution in water in the plantar surface of the left hind foot. […] These behaviors were timed using a hand-held stopwatch and recorded at 5 min intervals. Data was analyzed by the two distinct phases of responding. Early phase responding included Minutes 0-10, and late phase responding included Minutes 11-45. The total time spent licking by drug-treated animals in each phase was compared to the total time spent licking by vehicle-treated animals.

## CN1C(=O)CN=C(c2ccccc2)c2cc(Cl)ccc21 [diazepam]
[1]; FIG. 9
  responsiveness to anticonvulsant effects: fully responsive
[2]; 129S6/SvEv, shock 0.6 mA
  minimally effective dose (MED), Vogel: inactive
[2]; C57BL/6J, shock 0.4 mA
  minimally effective dose (MED), Vogel: 3.2
[2]; C57 albino, shock 0.1 mA
  minimally effective dose (MED), Vogel: 3.2
[2]; Hets, shock 0.4 mA
  minimally effective dose (MED), Vogel: 3.2
[2]; Knockins, shock 0.7 mA
  minimally effective dose (MED), Vogel: inactive
[2]
  anxiolytic-like effect / punished licking, Vogel: Diazepam (+ control) failed to produce an anxiolytic-like effect in R217A knockins. Data suggests 129S6-parent strain's genotype may be responsible for pharmacological profile of diazepam
[2]; Wild Type, shock 0.1 mA
  minimally effective dose (MED), Vogel: 3.2

## NCC1(CC(=O)O)CCCCC1 [gabapentin, 1-(aminomethyl)cyclohexaneacetic acid]
[3]
  gabapentin binding to brain membranes: reduced, or greatly abolished

## CC(C)C[C@H](CN)CC(=O)O [pregabalin]
[4]
  effect in Tail Suspension Test: exerts its sedative and/or anxiolytic effect in TST through the α2/δ1 polypeptide
[5]; knock-in animals
  efficacy in CCI-induced allodynia: failed to demonstrate any efficacy
[5]; knock-in mice
  effect on CCI-induced punctate allodynia: no effect
[5]; wild type mice
  efficacy in CCI-induced allodynia: typical efficacy
  effect on CCI-induced punctate allodynia: significant blockade
[1]; mutant mice vs wild-type, heterozygous or back-ground strains
  potency in protecting against seizures: less potent
[1]; −/− mice as compared to +/+ mice, FIG. 9
  anticonvulsant effects: reduced
[1]; −/− mice vs +/+ mice, FIG. 9
  sensitivity to effects in MES: less sensitive
[6]
  efficacy on formalin-induced hyperalgesia: reduced efficacy
[2]; 129S6/SvEv, shock 0.6 mA
  minimally effective dose (MED), Vogel: 32
[2]; C57BL/6J, shock 0.4 mA
  minimally effective dose (MED), Vogel: 10
[2]; C57 albino, shock 0.1 mA
  minimally effective dose (MED), Vogel: 10
[2]; Hets, shock 0.4 mA
  minimally effective dose (MED), Vogel: 10
[2]; Knockins, dose 100
  increase in punished responding @ 100, Vogel: non-significant
[2]; Knockins, shock 0.7 mA
  minimally effective dose (MED), Vogel: inactive
[2]
  anxiolytic-like effect / punished licking, Vogel: does not produce a statistically significant increase
[2]; listed as Pregabalin
  anxiolytic-like effect / punished licking, Vogel: Pregabalin did not produce a significant anxiolytic-like effect in R217A knockins, and no evidence was obtained relating phenotype to particular parent strain
[2]; Wild Type, shock 0.1 mA
  minimally effective dose (MED), Vogel: 32

## O=C1NC(=O)C(c2ccccc2)(c2ccccc2)N1 [phenytoin]
[1]; FIG. 9
  responsiveness to anticonvulsant effects: fully responsive
